Test results published in US11780830B2, “Triazolone derivatives or salts thereof and pharmaceutical compositions comprising the same” (YUHAN CORPORATION, priority 2018, dated 2023).
Structures can show the parent of a compound that is named as a salt.

Tests used:
Assay type in all cases: biochemical
[1] = target: T1, recombinant human MAO-B (monoamine oxidase-B) (Homo sapiens, UniProt P27338); assay: Activity on recombinant human MAO-B, method similar to the VAP-1 assay; conditions: substrate 1 mM benzylamine; read-out: Inhibitory Activity (IC50, nM) MAO-B
T1 construct: purchased Sigma-Aldrich
T1 sequence (P27338 1-520): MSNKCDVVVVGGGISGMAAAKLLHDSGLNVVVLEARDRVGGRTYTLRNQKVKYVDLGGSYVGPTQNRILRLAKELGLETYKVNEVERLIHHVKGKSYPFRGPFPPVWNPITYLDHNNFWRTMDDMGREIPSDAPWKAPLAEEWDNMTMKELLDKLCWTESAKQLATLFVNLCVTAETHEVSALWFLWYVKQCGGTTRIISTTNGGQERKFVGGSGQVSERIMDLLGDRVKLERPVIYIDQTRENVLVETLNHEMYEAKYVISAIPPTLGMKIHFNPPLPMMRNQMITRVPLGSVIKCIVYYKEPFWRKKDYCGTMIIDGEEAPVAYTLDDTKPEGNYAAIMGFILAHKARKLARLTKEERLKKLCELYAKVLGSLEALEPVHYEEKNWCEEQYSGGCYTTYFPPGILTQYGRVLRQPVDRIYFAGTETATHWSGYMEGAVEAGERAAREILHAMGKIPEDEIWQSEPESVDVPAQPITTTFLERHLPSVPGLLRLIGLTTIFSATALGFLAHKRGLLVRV
Summary of the method: (§1)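 HRP-coupled Amplex Red H2O2 assay, 50 mM sodium phosphate pH 7.4; compounds (8-point 1:3 series, final DMSO <1%) preincubated with enzyme 30 min at 37° C, then 200 uM Amplex Red, 1 U/mL HRP and substrate (MAO-A 0.5 mM tyramine; MAO-B 1 mM benzylamine) added. Resorufin fluorescence (ex 544/em 590 nm) read over 1-2 h; IC50 from four-parameter logistic fit.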

[2] = target: T2, recombinant human DAO (diamine oxidase) (Homo sapiens, UniProt P19801); assay: Activity on recombinant human DAO, method similar to the VAP-1 assay; conditions: substrate 1 mM putrescine; read-out: Inhibitory Activity (IC50, nM) DAO
T2 construct: purchased R&D systems
T2 sequence (P19801 20-751): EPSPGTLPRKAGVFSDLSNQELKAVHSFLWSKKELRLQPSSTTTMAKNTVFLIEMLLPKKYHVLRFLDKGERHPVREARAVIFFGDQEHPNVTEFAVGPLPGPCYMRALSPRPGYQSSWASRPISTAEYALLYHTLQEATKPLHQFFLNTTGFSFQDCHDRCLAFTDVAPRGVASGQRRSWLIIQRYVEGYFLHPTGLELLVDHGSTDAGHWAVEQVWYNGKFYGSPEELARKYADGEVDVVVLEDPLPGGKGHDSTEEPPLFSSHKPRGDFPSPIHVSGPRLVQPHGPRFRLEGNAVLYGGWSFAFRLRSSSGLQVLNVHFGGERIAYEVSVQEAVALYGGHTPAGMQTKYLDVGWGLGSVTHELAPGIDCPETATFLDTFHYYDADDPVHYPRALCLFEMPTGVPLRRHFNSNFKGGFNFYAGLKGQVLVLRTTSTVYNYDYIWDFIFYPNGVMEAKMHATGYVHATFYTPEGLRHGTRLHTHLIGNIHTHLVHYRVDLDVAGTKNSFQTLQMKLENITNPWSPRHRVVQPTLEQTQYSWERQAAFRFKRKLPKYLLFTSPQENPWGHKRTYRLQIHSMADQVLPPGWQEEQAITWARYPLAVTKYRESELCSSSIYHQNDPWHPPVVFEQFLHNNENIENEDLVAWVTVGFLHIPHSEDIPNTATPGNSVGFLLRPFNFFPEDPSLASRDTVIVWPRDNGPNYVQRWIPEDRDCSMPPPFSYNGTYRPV
Summary of the method: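 Inhibition of recombinant human diamine oxidase (DAO, R&D systems) was assessed by the same approach as the VAP-1 assay, using 1 mM putrescine as substrate. Hydrogen peroxide formed was detected through an HRP-coupled Amplex Red reaction yielding fluorescent resorufin, read at 544 nm excitation and 590 nm emission. IC50 values came from four-parameter logistic fitting in GraphPad Prism.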

[3] = target: T3, recombinant human MAO-A (monoamine oxidase-A) (Homo sapiens, UniProt P21397); assay: Activity on recombinant human MAO-A, method similar to the VAP-1 assay; conditions: substrate 0.5 mM tyramine; read-out: Inhibitory Activity (IC50, nM) MAO-A
T3 construct: purchased Sigma-Aldrich
T3 sequence (P21397 1-527): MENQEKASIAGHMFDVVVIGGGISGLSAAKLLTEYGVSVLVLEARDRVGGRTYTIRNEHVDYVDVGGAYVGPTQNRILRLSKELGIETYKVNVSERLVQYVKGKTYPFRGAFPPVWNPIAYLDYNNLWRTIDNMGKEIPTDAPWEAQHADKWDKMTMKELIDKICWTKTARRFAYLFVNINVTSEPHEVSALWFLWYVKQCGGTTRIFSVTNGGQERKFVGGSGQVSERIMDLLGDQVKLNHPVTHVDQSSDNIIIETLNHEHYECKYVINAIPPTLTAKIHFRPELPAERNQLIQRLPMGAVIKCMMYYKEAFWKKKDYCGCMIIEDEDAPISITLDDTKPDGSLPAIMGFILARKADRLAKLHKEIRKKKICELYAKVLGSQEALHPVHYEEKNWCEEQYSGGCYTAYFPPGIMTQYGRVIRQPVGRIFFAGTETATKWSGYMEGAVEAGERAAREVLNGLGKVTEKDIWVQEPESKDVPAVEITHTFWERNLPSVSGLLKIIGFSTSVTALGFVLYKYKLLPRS
Summary of the method: as §1

recombinant human VAP-1 = target: T4, recombinant human VAP-1 (Homo sapiens, UniProt Q16853); assay: Activity on recombinant human VAP-1, HRP-coupled Amplex Red hydrogen peroxide assay; conditions: substrate 1 mM benzylamine; compound incubated with enzyme at 37° C. for 30 minutes; pH 7.4; read-out: Inhibitory Activity (IC50, nM) human VAP-1
T4 construct: purchased R&D systems
T4 sequence (Q16853 1-763): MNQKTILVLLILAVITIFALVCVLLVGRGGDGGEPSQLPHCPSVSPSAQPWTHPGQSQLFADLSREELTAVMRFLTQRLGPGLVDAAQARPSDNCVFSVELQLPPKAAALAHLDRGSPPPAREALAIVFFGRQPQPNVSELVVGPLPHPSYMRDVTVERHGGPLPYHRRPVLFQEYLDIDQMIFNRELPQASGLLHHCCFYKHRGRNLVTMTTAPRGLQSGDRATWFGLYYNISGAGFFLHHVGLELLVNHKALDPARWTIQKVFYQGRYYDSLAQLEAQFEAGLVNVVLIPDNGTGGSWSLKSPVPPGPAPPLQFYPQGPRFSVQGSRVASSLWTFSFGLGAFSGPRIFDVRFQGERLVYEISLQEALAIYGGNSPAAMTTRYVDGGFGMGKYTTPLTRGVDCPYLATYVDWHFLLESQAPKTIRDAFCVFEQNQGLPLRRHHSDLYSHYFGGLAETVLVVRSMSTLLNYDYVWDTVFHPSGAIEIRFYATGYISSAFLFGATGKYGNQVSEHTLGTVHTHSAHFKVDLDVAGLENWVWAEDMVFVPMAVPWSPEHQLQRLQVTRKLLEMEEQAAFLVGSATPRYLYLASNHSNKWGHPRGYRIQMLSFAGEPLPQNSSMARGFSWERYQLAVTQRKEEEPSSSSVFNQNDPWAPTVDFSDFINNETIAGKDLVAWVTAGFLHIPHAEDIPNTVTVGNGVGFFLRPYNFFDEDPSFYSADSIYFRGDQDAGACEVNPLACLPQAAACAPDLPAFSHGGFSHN
Summary of the method: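 8-point 1:3 dilutions, final DMSO <1%; 30 min enzyme preincubation, 37 °C, pH 7.4 phosphate. Start: 1 mM benzylamine + 200 uM Amplex Red + 1 U/mL HRP. Read ex544/em590 over 1-2 h; % rate decrease vs DMSO control, 4-parameter logistic IC50.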

| IC50 [1] [nM] | IC50 [2] [nM] | IC50 [3] [nM] | IC50 (recombinant human VAP-1) [nM] | SMILES |
| --- | --- | --- | --- | --- |
| 740 | 16000 | > 100000 | 2.4 | NC/C(=C\F)Cn1ncn(Cc2ccc(-c3ccc(CCO)cc3)s2)c1=O [Example 171, 2-[(2E)-2-(aminomethyl)-3-fluoroprop-2-en-1-yl]-4-({5-[4-(2-hydroxyethyl)phenyl]thiophen-2-yl}methyl)-2,4-dihydro-3H-1,2,4-triazol-3-one] |
| 2200 | 1400 | > 100000 | 1.6 | CCn1cc(-c2ccc3sc(Cn4cnn(C/C(=C/F)CN)c4=O)cc3c2)cn1 [Example 214, 2-[(2E)-2-(aminomethyl)-3-fluoroprop-2-en-1-yl]-4-{[5-(1-ethyl-1H-pyrazol-4-yl)-1-benzothiophen-2-yl]methyl}-2,4-dihydro-3H-1,2,4-triazol-3-one] |
| 1300 | 460 | > 100000 | 0.2 | Cc1cc(-c2ccc(Cn3cnn(C/C(=C/F)CN)c3=O)s2)cc2c1NC(=O)CC2 [Example 77, 6-[5-(1-[(2E)-2-(aminomethyl)-3-fluoroprop-2-en-1-yl]-5-oxo-1,5-dihydro-4H-1,2,4-triazol-4-ylmethyl)thiophen-2-yl]-8-methyl-3,4-dihydroquinolin-2(1H)-one hydrochloride] |
| 1900 | 1100 | > 100000 | 1.5 | CNC(=O)c1ccc(-c2ccc(Cn3cnn(C/C(=C/F)CN)c3=O)s2)cc1 [Example 176, 4-[5-({1-[(2E)-2-(aminomethyl)-3-fluoroprop-2-en-1-yl]-5-oxo-1,5-dihydro-4H-1,2,4-triazol-4-yl}methyl)thiophen-2-yl]-N-methylbenzamide] |
| 73 | 290 | > 100000 | 0.5 | NC/C(=C\F)Cn1ncn(Cc2ccc(C#Cc3cnc4c(c3)OCC(=O)N4)s2)c1=O [Example 139, 7-[2-[5-[[1-[(E)-2-(aminomethyl)-3-fluoro-allyl]-5-oxo-1,2,4-triazol-4-yl]methyl]-2-thienyl]ethynyl]-4H-pyrido[3,2-b][1,4]oxazin-3-one hydrochloride] |
| 4500 | 470 | > 100000 | 0.4 | NC/C(=C\F)Cn1ncn(Cc2ccc(-c3cnc4c(c3)COC(=O)N4)s2)c1=O [Example 149, 6-[5-({1-[(2E)-2-(aminomethyl)-3-fluoroprop-2-en-1-yl]-5-oxo-1,5-dihydro-4H-1,2,4-triazol-4-yl}methyl)thiophen-2-yl]-1,4-dihydro-2H-pyrido[2,3-d][1,3]oxazin-2-one] |
| 110 | 370 | > 100000 | 0.6 | NC/C(=C\F)Cn1ncn(Cc2ccc(-c3ccc(-c4ccon4)cc3)s2)c1=O [Example 40, 2-[(2E)-2-(aminomethyl)-3-fluoroprop-2-en-1-yl]-4-(5-[4-(1,2-oxazol-3-yl)phenyl]thiophen-2-ylmethyl)-2,4-dihydro-3H-1,2,4-triazol-3-one hydrochloride] |
| 590 | 120 | 5590 | 0.76 | CC(C)c1nc(-c2ccc(-c3ccc(Cn4cnn(C/C(=C/F)CN)c4=O)s3)cc2)no1 [Example 37, 2-[(2E)-2-(aminomethyl)-3-fluoroprop-2-en-1-yl]-4-[(5-4-[5-(propan-2-yl)-1,2,4-oxadiazol-3-yl]phenylthiophen-2-yl)methyl]-2,4-dihydro-3H-1,2,4-triazol-3-one hydrochloride] |
| 38000 | 890 | > 100000 | 0.7 | CCn1cc(-c2ccc(CCn3cnn(C/C(=C/F)CN)c3=O)s2)cn1 [Example 222, 2-[(2E)-2-(aminomethyl)-3-fluoroprop-2-en-1-yl]-4-{2-[5-(1-ethyl-1H-pyrazol-4-yl)thiophen-2-yl]ethyl}-2,4-dihydro-3H-1,2,4-triazol-3-one] |
| 6900 | 61 | > 100000 | 0.7 | NC/C(=C\F)Cn1ncn(CCc2ccc(-c3ccc(C(F)(F)F)nc3)s2)c1=O [Example 217, 2-[(2E)-2-(aminomethyl)-3-fluoroprop-2-en-1-yl]-4-(2-{5-[6-(trifluoromethyl)pyridin-3-yl]thiophen-2-yl}ethyl)-2,4-dihydro-3H-1,2,4-triazol-3-one] |
| 310 | 380 | > 100000 | 1.3 | NC/C(=C\F)Cn1ncn(CCc2ccc(-c3ccc4c(c3)OCO4)s2)c1=O [Example 215, 2-[(2E)-2-(aminomethyl)-3-fluoroprop-2-en-1-yl]-4-{2-[5-(1,3-benzodioxol-5-yl)thiophen-2-yl]ethyl}-2,4-dihydro-3H-1,2,4-triazol-3-one] |
| 250 | 760 | > 100000 | 1.5 | CS(=O)(=O)c1cccc(-c2ccc(Cn3cnn(C/C(=C/F)CN)c3=O)s2)c1 [Example 181, 2-[(2E)-2-(aminomethyl)-3-fluoroprop-2-en-1-yl]-4-({5-[3-(methylsulfonyl)phenyl]thiophen-2-yl}methyl)-2,4-dihydro-3H-1,2,4-triazol-3-one] |
